# Reference: patent US9283222B2 (priority 2006, dated 2016)
# Molecular target: Recombinant Human Poly(ADP-Ribose) Polymerase (PARP), PARP-1 (Homo sapiens (Human), UniProt P09874)
# Settings: read-out: PARP-1 (Ki)
# Recombinant Human Poly(ADP-Ribose) Polymerase (PARP), PARP-1, sequence (P09874 whole entry): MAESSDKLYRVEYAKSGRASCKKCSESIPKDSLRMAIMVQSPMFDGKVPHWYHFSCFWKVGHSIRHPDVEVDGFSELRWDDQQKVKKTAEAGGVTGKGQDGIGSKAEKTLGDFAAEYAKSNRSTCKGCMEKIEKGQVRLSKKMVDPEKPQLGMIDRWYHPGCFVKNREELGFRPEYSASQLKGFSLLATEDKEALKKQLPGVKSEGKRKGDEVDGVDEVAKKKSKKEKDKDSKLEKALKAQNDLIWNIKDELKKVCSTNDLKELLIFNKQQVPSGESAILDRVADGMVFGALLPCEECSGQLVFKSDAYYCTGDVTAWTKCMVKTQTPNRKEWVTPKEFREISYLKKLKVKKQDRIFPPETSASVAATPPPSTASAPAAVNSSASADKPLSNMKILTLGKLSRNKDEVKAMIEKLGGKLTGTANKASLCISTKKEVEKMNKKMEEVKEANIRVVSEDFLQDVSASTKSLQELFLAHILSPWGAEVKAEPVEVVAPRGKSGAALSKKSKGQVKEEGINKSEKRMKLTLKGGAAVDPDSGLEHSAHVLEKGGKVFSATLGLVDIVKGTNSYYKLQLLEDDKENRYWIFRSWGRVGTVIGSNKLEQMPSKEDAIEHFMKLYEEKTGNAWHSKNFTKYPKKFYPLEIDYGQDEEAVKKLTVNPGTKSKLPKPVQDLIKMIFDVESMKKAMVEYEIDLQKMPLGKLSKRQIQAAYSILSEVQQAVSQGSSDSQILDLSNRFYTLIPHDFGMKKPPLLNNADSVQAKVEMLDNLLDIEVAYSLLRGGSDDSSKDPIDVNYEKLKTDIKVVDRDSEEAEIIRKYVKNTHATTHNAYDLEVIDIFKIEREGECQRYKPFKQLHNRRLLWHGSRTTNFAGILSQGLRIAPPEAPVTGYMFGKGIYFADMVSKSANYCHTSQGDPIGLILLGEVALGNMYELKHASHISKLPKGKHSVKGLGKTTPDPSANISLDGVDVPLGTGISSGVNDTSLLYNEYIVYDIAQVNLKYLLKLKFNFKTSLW
row,Ki [nM],Structure (SMILES)
1,173,"CC(C)C[C@H](NC(=O)Nc1cc(Cc2n[nH]c(=O)c3c2CCCC3)ccc1F)C(=O)O [Example 626, N-[({2-fluoro-5-[(4-oxo-3,4,5,6,7,8-hexahydrophthalazin-1-yl)methyl]phenyl}amino)carbonyl]leucine]"

# Same assay, conditions: read-out: PARP-1 (Ki); Table 1; text calls the values EC50s
row,Structure (SMILES),Ki [nM]
1,"O=C(Nc1cccc(Cc2n[nH]c(=O)c3c2CCCC3)c1)C1=Cc2cc(Cl)ccc2OC1 [Example 220, 6-chloro-N-(3-((4-oxo-3,4,5,6,7,8-hexahydrophthalazin-1-yl)methyl)phenyl)-2H-chromene-3-carboxamide]",14
2,"O=C(c1cccc(Cc2n[nH]c(=O)c3c2CCCC3)c1)N1CCN(c2ccccc2)CC1 [Example 440, 4-(3-((4-phenylpiperazin-1-yl)carbonyl)benzyl)-5,6,7,8-tetrahydrophthalazin-1(2H)-one]",3
3,"CCNC(=O)c1cc(Cc2n[nH]c(=O)c3c2CCCC3)ccn1 [Example 75, N-ethyl-4-((4-oxo-3,4,5,6,7,8-hexahydrophthalazin-1-yl)methyl)pyridine-2-carboxamide]",56
4,"CC(Cc1n[nH]c(=O)c2c1CCCC2)c1ccc(F)c(-c2cccc(C(=O)N3CCCC3)c2)c1 (centres unmarked) [Example 276, 4-(2-(6-fluoro-3′-(pyrrolidin-1-ylcarbonyl)-1,1′-biphenyl-3-yl)propyl)-5,6,7,8-tetrahydrophthalazin-1(2H)-one]",943
5,"CC(=O)Nc1ccc(C(=O)Nc2cccc(Cc3n[nH]c(=O)c4c3CCCC4)c2)cc1 [Example 234, 4-(acetylamino)-N-(3-((4-oxo-3,4,5,6,7,8-hexahydrophthalazin-1-yl)methyl)phenyl)benzamide]",57
6,"CC(C)n1nnc2cc(C(=O)N3CCCN(C(=O)c4cc(Cc5n[nH]c(=O)c6c5NCCC6)ccc4F)CC3)ccc21 [Example 690, 8-[4-fluoro-3-({4-[(1-isopropyl-1H-1,2,3-benzotriazol-5-yl)carbonyl]-1,4-diazepan-1-yl}carbonyl)benzyl]-2,3,4,6-tetrahydropyrido[2,3-d]pyridazin-5(1H)-one]",2.4
7,"O=C(Nc1cccc(Cc2n[nH]c(=O)c3c2CCCC3)c1)c1cccs1 [Example 196, N-(3-((4-oxo-3,4,5,6,7,8-hexahydrophthalazin-1-yl)methyl)phenyl)thiophene-2-carboxamide]",286
8,"O=C(CCOc1ccccc1)Nc1cc(Cc2n[nH]c(=O)c3c2NCCC3)ccc1F [Example 478, N-(2-fluoro-5-((5-oxo-1,2,3,4,5,6-hexahydropyrido(2,3-d)pyridazin-8-yl)methyl)phenyl)-3-phenoxypropanamide]",2
9,"N[C@H]1CC(=O)N(c2cc(Cc3n[nH]c(=O)c4c3CCCC4)ccc2F)C1=O [Example 583, (3S)-3-amino-1-{2-fluoro-5-[(4-oxo-3,4,5,6,7,8-hexahydrophthalazin-1-yl)methyl]phenyl}pyrrolidine-2,5-dione]",2.3
10,"COc1cccc(CCNC(=O)c2cccc(Cc3n[nH]c(=O)c4c3CCCC4)c2)c1OC [Example 402, N-(2-(2,3-dimethoxyphenyl)ethyl)-3-((4-oxo-3,4,5,6,7,8-hexahydrophthalazin-1-yl)methyl)benzamide]",86
11,"COCCC(=O)Nc1cc(Cc2n[nH]c(=O)c3c2CCCC3)ccc1F [Example 456, N-(2-fluoro-5-((4-oxo-3,4,5,6,7,8-hexahydrophthalazin-1-yl)methyl)phenyl)-3-methoxypropanamide]",5
12,"CCCCOc1ccc(C(=O)Nc2cccc(Cc3n[nH]c(=O)c4c3CCCC4)c2)cc1 [Example 190, 4-butoxy-N-(3-((4-oxo-3,4,5,6,7,8-hexahydrophthalazin-1-yl)methyl)phenyl)benzamide]",263
13,"O=C(c1ccncc1)N1CCCN(C(=O)c2cc(Cc3n[nH]c(=O)c4c3NCCC4)ccc2F)CC1 [Example 682, 8-{4-fluoro-3-[(4-isonicotinoyl-1,4-diazepan-1-yl)carbonyl]benzyl}-2,3,4,6-tetrahydropyrido[2,3-d]pyridazin-5(1H)-one]",2.4
14,"CC1CCCN1C(=O)c1cccc(Cc2n[nH]c(=O)c3c2CCCC3)c1 (centres unmarked) [Example 53, 4-(3-((2-methylpyrrolidin-1-yl)carbonyl)benzyl)-5,6,7,8-tetrahydrophthalazin-1(2H)-one]",10
15,"O=C(CN1CCCC1=O)Nc1cc(Cc2n[nH]c(=O)c3c2CCCC3)ccc1F [Example 453, N-(2-fluoro-5-((4-oxo-3,4,5,6,7,8-hexahydrophthalazin-1-yl)methyl)phenyl)-2-(2-oxopyrrolidin-1-yl)acetamide]",14
16,Cc1c(C(=O)Nc2cccc(Cc3n[nH]c(=O)c4c3CCCC4)c2)cnn1-c1ccccc1 [Example 219],9
17,"O=C(CCc1ccccc1Cl)Nc1cccc(Cc2n[nH]c(=O)c3c2CCCC3)c1 [Example 168, 3-(2-chlorophenyl)-N-(3-((4-oxo-3,4,5,6,7,8-hexahydrophthalazin-1-yl)methyl)phenyl)propanamide]",127
18,"O=C(c1cc(Cc2n[nH]c(=O)c3c2NCCC3)ccc1F)N1CCN(c2cncnc2)CC1 [Example 696, 8-{4-fluoro-3-[(4-pyrimidin-5-ylpiperazin-1-yl)carbonyl]benzyl}-2,3,4,6-tetrahydropyrido[2,3-d]pyridazin-5(1H)-one]",2.5
19,"CCCc1ccccc1NC(=O)c1cccc(Cc2n[nH]c(=O)c3c2CCCC3)c1 [Example 332, 3-((4-oxo-3,4,5,6,7,8-hexahydrophthalazin-1-yl)methyl)-N-(2-propylphenyl)benzamide]",635
20,"O=C(c1cc(Cc2n[nH]c(=O)c3c2CCCC3)ccc1F)N1CCN(Cc2ccccc2Cl)CC1 [Example 518, 4-(3-{[4-(2-chlorobenzyl)piperazin-1-yl]carbonyl}-4-fluorobenzyl)-5,6,7,8-tetrahydrophthalazin-1(2H)-one]",10

# Other lines, results leading:
row,Ki [nM],Structure (SMILES)
1,1.7,CC(C)n1c(C(F)(F)F)nc2cc(C(=O)N3CCN(C(=O)c4cc(Cc5n[nH]c(=O)c6c5NCCC6)ccc4F)CC3)ccc21 [Example 647]
2,49,"COc1ccc(C(=O)Nc2cccc(Cc3n[nH]c(=O)c4c3CCCC4)c2)cc1F [Example 229, 3-fluoro-4-methoxy-N-(3-((4-oxo-3,4,5,6,7,8-hexahydrophthalazin-1-yl)methyl)phenyl)benzamide]"
3,1.5,"O=C(c1ccc(O)nc1)N1CCN(C(=O)c2cc(Cc3n[nH]c(=O)c4c3CCCC4)ccc2F)CC1 [Example 735, 4-[4-fluoro-3-({4-[(6-hydroxypyridin-3-yl)carbonyl]piperazin-1-yl}carbonyl)benzyl]-5,6,7,8-tetrahydrophthalazin-1(2H)-one]"
4,1.3,"O=C(c1cnc(O)c(Cl)c1)N1CCN(C(=O)c2cc(Cc3n[nH]c(=O)c4c3CCCC4)ccc2F)CC1 [Example 723, 4-[3-({4-[(5-chloro-6-hydroxypyridin-3-yl)carbonyl]piperazin-1-yl}carbonyl)-4-fluorobenzyl]-5,6,7,8-tetrahydrophthalazin-1(2H)-one]"
5,20,"CN1CCN(C(=O)c2cccc(Cc3n[nH]c(=O)c4c3CCCC4)c2)CC1 [Example 435, 4-(3-((4-methylpiperazin-1-yl)carbonyl)benzyl)-5,6,7,8-tetrahydrophthalazin-1(2H)-one]"
6,40,"CC(=O)c1ccc(C(=O)Nc2cccc(Cc3n[nH]c(=O)c4c3CCCC4)c2)cc1 [Example 226, 4-acetyl-N-(3-((4-oxo-3,4,5,6,7,8-hexahydrophthalazin-1-yl)methyl)phenyl)benzamide]"
7,42,"COc1cc(CCNC(=O)c2cccc(Cc3n[nH]c(=O)c4c3CCCC4)c2)cc(OC)c1 [Example 406, N-(2-(3,5-dimethoxyphenyl)ethyl)-3-((4-oxo-3,4,5,6,7,8-hexahydrophthalazin-1-yl)methyl)benzamide]"
8,83,"O=C(NCCc1ccc(Oc2ccccc2)cc1)c1cccc(Cc2n[nH]c(=O)c3c2CCCC3)c1 [Example 396, 3-((4-oxo-3,4,5,6,7,8-hexahydrophthalazin-1-yl)methyl)-N-(2-(4-phenoxyphenyl)ethyl)benzamide]"
9,10,"O=C(NCC(=O)N1CCCCC1)c1cc(Cc2n[nH]c(=O)c3c2NCCC3)ccc1F [Example 487, 2-fluoro-5-((5-oxo-1,2,3,4,5,6-hexahydropyrido(3,2-d)pyridazin-8-yl)methyl)-N-(2-oxo-2-(piperidin-1-yl)ethyl)benzamide]"
10,21,"O=C(O)CNC(=O)Nc1cc(Cc2n[nH]c(=O)c3c2CCCC3)ccc1F [Example 625, N-[({2-fluoro-5-[(4-oxo-3,4,5,6,7,8-hexahydrophthalazin-1-yl)methyl]phenyl}amino)carbonyl]glycine]"
11,477,"O=c1[nH]nc(Cc2cccc(NS(=O)(=O)c3cccnc3)c2)c2c1CCCC2 [Example 117, N-(3-((4-oxo-3,4,5,6,7,8-hexahydrophthalazin-1-yl)methyl)phenyl)pyridine-3-sulfonamide]"
12,74,"Cc1cccc(OCC(=O)Nc2cccc(Cc3n[nH]c(=O)c4c3CCCC4)c2)c1 [Example 148, 2-(3-methylphenoxy)-N-(3-((4-oxo-3,4,5,6,7,8-hexahydrophthalazin-1-yl)methyl)phenyl)acetamide]"
13,2,"O=C(c1cc(Cc2n[nH]c(=O)c3c2NCCC3)ccc1F)N1CCN(c2ccc(F)cc2)CC1 [Example 548, 8-(4-fluoro-3-{[4-(4-fluorophenyl)piperazin-1-yl]carbonyl}benzyl)-2,3,4,6-tetrahydropyrido[2,3-d]pyridazin-5(1H)-one]"
14,691,"CC(C)NC(=O)c1cccc(Cc2n[nH]c(=O)c3c2CCCC3)n1 [Example 82, N-isopropyl-6-((4-oxo-3,4,5,6,7,8-hexahydrophthalazin-1-yl)methyl)pyridine-2-carboxamide]"
15,156,"CCc1ccc(C(=O)Nc2cccc(Cc3n[nH]c(=O)c4c3CCCC4)c2)cc1 [Example 177, 4-ethyl-N-(3-((4-oxo-3,4,5,6,7,8-hexahydrophthalazin-1-yl)methyl)phenyl)benzamide]"
16,1.4,"O=C(c1ccncc1)N1CCN(C(=O)c2cc(Cc3n[nH]c(=O)c4c3CCCC4)ccc2F)CC1 [Example 720, 4-{4-fluoro-3-[(4-isonicotinoylpiperazin-1-yl)carbonyl]benzyl}-5,6,7,8-tetrahydrophthalazin-1(2H)-one]"

# Same assay, conditions: read-out: PARP-1 (Ki); Table 2; A2 is C1-alkyl versus no A2 (bond)
row,Ki [nM],Structure (SMILES)
1,191,O=C1CCCN1c1cc(-c2n[nH]c(=O)c3c2CCCC3)ccc1F [drawing 8]
